Experimental data reported in patent US20140303242A1, “Sparstolonin B Based Pharmaceutical Agent to Treat Pathological Angiogensis” (University of South Carolina, priority 2013, published 2014).
“Also recorded” adds a separate entry of the source.

Legend:
[1] = tested on: HMVECs; experiment: Matrigel tube formation assay (cardiac HMVECs); assay type: cell-based, human; conditions: 1, 10, 100 μM, 4 h
Method: To initially determine if SsnB inhibited pro-angiogenic cell functions, a tube formation assay with Matrigel was performed. Growth factor reduced Matrigel (BD Biosciences, Bedford, Mass.) was added to the wells of a 96 well polystyrene culture plate and incubated at 37° C. for 30 minutes. Cells (HUVECs, HCAECs, or HMVECs at passage 2 to 4) were added to each well to reach a final number of 20,000 cells per well. SsnB was added to the wells at a concentration of 1, 10, or 100 μM. Endothelial cell medium with DMSO (0.1%) was used as a vehicle control. Each group contained 4 replicates. The plates were placed in an incubator for 4 h. During the incubation, the endothelial cells formed elongated structures called cords, also known as tubes. After 4 h, neutral buffered formalin was added to fix the cells. Pictures of three non-overlapping fields were taken from each well. The lengths of single cell endothelial cords were measured with Image-Pro Plus (Media Cybernetics, Silver Spring, Md.), and the sum of tube lengths for each well was determined. The average total length and standard deviation for each group were determined, and the appropriate statistical tests (ANOVA and Newman-Keuls) were completed. The tube formation assay was replicated three times for both HUVECs and HCAECs. The assay was also repeated with cardiac HMVECs.

[2] = tested on: HUVECs; experiment: Live/Dead cell viability assay; assay type: cell-based; conditions: HUVECs, 1, 10, 100 μM, 4 h
Method: A Live/Dead assay (Invitrogen, Eugene, Oreg.) was utilized to investigate the effect of SsnB on cell viability. The Matrigel tube formation experiment was repeated with HUVECs in chamber slides at a concentration of 20,000 cells per well. The cells were treated with SsnB (1, 10, or 100 μM) or Vehicle Control (0.1% DMSO) as described above. After four hours of incubation, the slides were removed. A chamber slide containing HUVECs treated with 70% methanol for 30 minutes was used as a control for dead cell staining. The slides were aspirated and washed with PBS, and EthD-1 and calcein AM were added to each well. The plates were incubated in the dark, and images were taken with a light microscope at 10× magnification.

[3] = tested on: HCAECs; experiment: Microarray gene expression analysis (HCAECs); assay type: cell-based, human; conditions: 24 h
Method: Confluent plates (100×20 mm polystyrene, tissue culture-treated petri plates coated with 0.1% gelatin, 75% confluent) of HUVECs and HCAECs (four plates for HUVECs, n=2, and six plates for HCAECs, n=3) were chosen for the microarray experiments. Half of the plates received complete growth medium (10% fetal bovine serum with endothelial mitogen) containing vehicle control (0.1% DMSO), and the remaining plates received complete growth medium containing 100 μM SsnB. The plates were incubated for 24 h to allow SsnB to have an effect on cellular gene expression. Following incubation, RNA isolation was completed with the RNeasy Mini kit from Qiagen. The cells were lysed, and RNA was isolated by using the RNeasy spin columns and following the protocol provided by Qiagen. Purified RNA was sent to the Medical University of South Carolina Proteogenomics Facility for microarray analysis. The GeneChip Human Genome U133 Plus 2.0 Array was utilized to track changes in gene expression due to SsnB treatment. Complete data was uploaded to the NCBI Gene Expression Omnibus database (accession number GSE44598).
Microarray data analysis, including data normalization (robust multi-array average), identification of differentially expressed genes (comparative analyses with dChip software), and heat map construction, was carried out to determine how SsnB affects gene expression and affected pathways (n=2 for HUVECs and n=3 for HCAECs). After a careful analysis of the microarray data, several key genes were chosen for qRT-PCR to verify the gene expression results. The genes were chosen based on the following criteria: fold change ≧2, p<0.05, unpaired t-test with a false discovery rate approximating 0%, appearing in both data sets (HUVECs and HCAECs), and gene function relating to cell proliferation and/or angiogenesis. For qRT-PCR, the expression levels were normalized to the housekeeping gene GAPDH, and RNA levels were compared between groups with the ΔΔCt method.

[4] = tested on: chick chorioallantoic membrane (CAM); experiment: Chick chorioallantoic membrane (CAM) assay; assay type: in vivo; conditions: methylcellulose disc, 100 micromolar SsnB
Method: To investigate the effects of SsnB on in vivo angiogenesis, a chick chorioallantoic membrane (CAM) assay was utilized. Chick embryos were exposed to methylcelluose discs containing vehicle control (DMSO) or 100 micromolar SsnB.
Methylcellulose discs were created with a solution of 0.5% methylcellulose (diluted in sterile deionized water). A methylcellulose solution of 100 micromolar SsnB was made by adding 1.1 microliters of stock SsnB (93 mM) to 1 ml 0.5% methylcellulose. A vehicle control solution was created by adding 1 microliter of dimethyl sulfoxide (DMSO) to 1 ml 0.5% methylcellulose. Discs were created by placing 20 microliter droplets of SsnB or vehicle control solution onto polytetrafluoroethylene tape (to minimize sticking during drying) and allowed to dry under a laminar flow hood.
The fertilized eggs were placed in a humidified egg incubator with forced air circulation at 37° C. The eggs were automatically rotated every three hours. After 4 days of incubation, the eggs were removed and cracked. Chick embryos with intact yolks were placed in 100 mm petri plates. Each petri plate was placed in a weigh boat containing 13 ml Moscona's buffer and covered with cellophane wrap with two holes for air circulation. The plates were placed in a water-jacketed incubator (37 C, 5% CO2) for 2 days. After 2 days of incubation, the methylcellulose discs containing either SsnB or vehicle control were placed on top of the CAM of each embryo in the right upper quadrant in an area near the allantoic vessels. After 2 additional days of incubation, the CAMs were examined and photographed with a dissecting stereomicroscope. Images were taken of areas containing the discs and non-treated regions. Each group contained seven embryos (calculated with PS 3.0.5 software, effect size of 50%, standard deviation of 30%, statistical power of 0.8, and α=0.05). The CAM assay was completed two times.
Images were analyzed with ImagePro Plus software. Blood vessel length and branching number were utilized to measure the effect of SsnB on angiogenesis. The vessel length was measured for areas containing the discs and non-treated regions. Normalized vessel length was calculated by dividing the length values of the treated regions by those of the non-treated regions. The same process was repeated for measuring the branching number.

[5] = tested on: monocytic THP-1 cells; experiment: Cytotoxicity on monocytic THP-1 cells; assay type: cell-based; conditions: concentrations up to 100 μM

For `O=c1occ2c3c(ccc(O)c13)Oc1ccc(O)cc1-2` [SsnB, Sparstolonin B], the “cardiac HMVEC tube formation” value [1] was “dose-dependent inhibition”, the “cell viability (live/dead assay)” value [2] was “no effect on cell viability” and the “ALDH3A1 Microarray Fold change value” ([3]; 100 μM SsnB vs vehicle control) was 8.8. For the same molecule, the “ANLN Microarray Fold change value” ([3]; 100 μM SsnB vs vehicle control) was 0.11, the “CCNB1 Microarray Fold change value” ([3]; 100 μM SsnB vs vehicle control) was 0.16 and the “CCNE2 Microarray Fold change value” ([3]; 100 μM SsnB vs vehicle control) was 0.38. The “CDC2 Microarray Fold change value” ([3]; 100 μM SsnB vs vehicle control) was 0.20, the “CDC6 Microarray Fold change value” ([3]; 100 μM SsnB vs vehicle control) was 0.18 and the “CDKN3 Microarray Fold change value” ([3]; 100 μM SsnB vs vehicle control) was 0.18. The “DIAPH3 Microarray Fold change value” ([3]; 100 μM SsnB vs vehicle control) was 0.38, the “HMMR Microarray Fold change value” ([3]; 100 μM SsnB vs vehicle control) was 0.20 and the “KITLG Microarray Fold change value” ([3]; 100 μM SsnB vs vehicle control) was 2.1. For the same molecule, the “number of differentially expressed genes in response to SsnB exposure” value ([3]; 100 μM, fold change ≧2, p<0.05) was 356 genes, the “blood vessel diameter and size” value ([4]; 2 days) was “decrease” and the normalized branch number ([4]; 2 days, vs vehicle control) was “significant decrease; also recorded: significant reduction”. The “normalized blood vessel length (capillary length)” value ([4]; 2 days, vs vehicle control, p<0.05) was “significant decrease; also recorded: significant reduction”, the “viability or morphology of the embryos” value ([4]; relative to vehicle control) was “no effect” and the cytotoxic effects [5] was “does not exhibit cytotoxic effects”.
